# Measurements as given in ChEMBL document CHEMBL5137050, “Hematopoietic Progenitor Kinase 1 in Tumor Immunology: A Medicinal Chemistry Perspective” (J Med Chem, 2022).
# How the values were obtained:
# [1] = target: T1, Mitogen-activated protein kinase kinase kinase kinase 1 (Homo sapiens, UniProt Q92918); test: Inhibition of HPK1 (unknown origin) in presence of ATP by ADP-Glo kinase assay
# Target sequence in this assay (Q92918 whole entry): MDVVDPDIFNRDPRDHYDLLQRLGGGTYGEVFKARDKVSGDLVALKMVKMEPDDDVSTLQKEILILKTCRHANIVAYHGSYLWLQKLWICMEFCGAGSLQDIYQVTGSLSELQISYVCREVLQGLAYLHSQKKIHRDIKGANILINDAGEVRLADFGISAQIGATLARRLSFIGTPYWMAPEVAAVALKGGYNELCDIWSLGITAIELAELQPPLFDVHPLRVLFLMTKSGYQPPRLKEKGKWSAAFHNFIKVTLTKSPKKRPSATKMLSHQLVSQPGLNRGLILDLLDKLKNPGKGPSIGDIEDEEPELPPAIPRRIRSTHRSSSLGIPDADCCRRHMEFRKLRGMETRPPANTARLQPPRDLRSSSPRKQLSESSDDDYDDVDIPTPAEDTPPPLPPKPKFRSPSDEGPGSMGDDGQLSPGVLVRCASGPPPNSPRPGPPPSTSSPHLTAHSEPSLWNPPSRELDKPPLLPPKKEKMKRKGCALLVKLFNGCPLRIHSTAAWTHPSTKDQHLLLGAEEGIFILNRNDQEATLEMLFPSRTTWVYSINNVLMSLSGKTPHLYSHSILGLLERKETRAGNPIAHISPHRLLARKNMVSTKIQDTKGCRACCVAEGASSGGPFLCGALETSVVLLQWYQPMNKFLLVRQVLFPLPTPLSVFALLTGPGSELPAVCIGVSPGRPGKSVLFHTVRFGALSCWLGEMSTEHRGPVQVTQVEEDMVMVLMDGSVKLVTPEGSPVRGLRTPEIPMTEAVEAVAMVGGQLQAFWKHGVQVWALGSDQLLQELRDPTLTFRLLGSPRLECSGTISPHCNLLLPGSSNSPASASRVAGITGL
# [2] = target: T1, Mitogen-activated protein kinase kinase kinase kinase 1; test: Inhibition of HPK1 (unknown origin) assessed as inhibition of SLP76 phosphorylation at 0.3 to 1 uM relative to control; details: dose 0.3-1 µM
# Target sequence in this assay (Q92918 whole entry, looked up): as the sequence (Q92918 whole entry) above
# [3] = target: T1, Mitogen-activated protein kinase kinase kinase kinase 1; test: Inhibition of HPK1 (unknown origin) by TR-FRET assay
# Target sequence in this assay (Q92918 whole entry): as above
# [4] = target: T1, Mitogen-activated protein kinase kinase kinase kinase 1; test: Inhibition of HPK1 (unknown origin) assessed as inhibition constant by Lanthascreen binding assay
# Target sequence in this assay (Q92918 whole entry): as above
# [5] = target: T1, Mitogen-activated protein kinase kinase kinase kinase 1; test: Inhibition of HPK1 (unknown origin) by ADP-Glo kinase assay
# Target sequence in this assay (Q92918 whole entry): as above
# [6] = target: T1, Mitogen-activated protein kinase kinase kinase kinase 1; test: Inhibition of HPK1 (unknown origin) in presence of ATP
# Target sequence in this assay (Q92918 whole entry): as above
# [7] = target: T1, Mitogen-activated protein kinase kinase kinase kinase 1; test: Inhibition of HPK1(unknown origin) assessed as inhibition of SLP76 phosphorylation by cell based assay
# Target sequence in this assay (Q92918 whole entry): as above
# [8] = target: T1, Mitogen-activated protein kinase kinase kinase kinase 1; test: Inhibition of HPK1 (unknown origin) in presence of ATP by TR-FRET assay
# [9] = target: T1, Mitogen-activated protein kinase kinase kinase kinase 1; test: Binding affinity to HPK1 (unknown origin) assessed as dissociation constant by SPR analysis
# [10] = target: T1, Mitogen-activated protein kinase kinase kinase kinase 1; test: Inhibition of HPK1 (1 to 346 residues) (unknown origin) assessed as inhibition constant by Lanthascreen binding assay
# [11] = target: T1, Mitogen-activated protein kinase kinase kinase kinase 1; test: Inhibition of HPK1 in human PBMC assessed as inhibition of SLP76 phosphorylation incubated for 1 hr by ELISA; assay type: cell-based
# [12] = target: T1, Mitogen-activated protein kinase kinase kinase kinase 1; test: Inhibition of N-terminal DYKDDDDK-tagged human HPK1 (1 to 346 residues) expressed in baculovirus expression system using SLP76 as substrate incubated for 1 hr in presence of ATP by TR-FRET assay
# [13] = target: T1, Mitogen-activated protein kinase kinase kinase kinase 1; test: Inhibition of HPK1 (unknown origin) by FRET assay
# [14] = target: Interleukin-2 (Homo sapiens, UniProt P60568); test: Inhibition of IL-2 (unknown origin)
# Sequence of Interleukin-2 (P60568 whole entry): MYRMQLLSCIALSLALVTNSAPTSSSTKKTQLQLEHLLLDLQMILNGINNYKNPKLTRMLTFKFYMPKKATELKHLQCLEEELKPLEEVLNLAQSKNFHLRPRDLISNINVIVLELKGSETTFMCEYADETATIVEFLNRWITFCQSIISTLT
# [15] = Cytotoxicity against HEK293 cells assessed as cell growth inhibition; assay type: toxicity, cell-based; details: human
# [16] = target: T2, Protein cereblon/Mitogen-activated protein kinase kinase kinase kinase 1 (Homo sapiens) (UniProt Q92918+Q96SW2); test: PROTAC activity at CRBN/HPK1 (unknown origin) assessed as degradation of HPK1 at 10 nM incubated for 12 hrs by cell based assay relative to control
# T2 sequence (Q92918 whole entry, looked up): as the sequence (Q92918 whole entry) above
# T2 sequence (Q96SW2 whole entry, looked up): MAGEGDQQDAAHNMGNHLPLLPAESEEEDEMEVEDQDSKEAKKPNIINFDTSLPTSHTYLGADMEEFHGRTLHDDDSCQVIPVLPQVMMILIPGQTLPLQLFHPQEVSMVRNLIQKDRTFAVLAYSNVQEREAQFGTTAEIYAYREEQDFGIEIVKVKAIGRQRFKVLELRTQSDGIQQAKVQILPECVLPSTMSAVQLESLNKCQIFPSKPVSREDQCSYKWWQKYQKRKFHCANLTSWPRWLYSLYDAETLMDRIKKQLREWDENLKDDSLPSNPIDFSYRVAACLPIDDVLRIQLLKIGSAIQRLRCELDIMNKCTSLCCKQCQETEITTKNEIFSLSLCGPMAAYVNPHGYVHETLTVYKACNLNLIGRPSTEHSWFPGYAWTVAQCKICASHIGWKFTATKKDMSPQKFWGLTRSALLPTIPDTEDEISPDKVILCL
# [17] = target: T2, Protein cereblon/Mitogen-activated protein kinase kinase kinase kinase 1 (Homo sapiens); test: PROTAC activity at CRBN/HPK1 (unknown origin) assessed as degradation of HPK1 at 100 nM incubated for 12 hrs by cell based assay relative to control
# [18] = target: Tyrosine-protein kinase Lck (Homo sapiens, UniProt P06239); test: Inhibition of LCK (unknown origin)
# Sequence of Tyrosine-protein kinase Lck (P06239 whole entry): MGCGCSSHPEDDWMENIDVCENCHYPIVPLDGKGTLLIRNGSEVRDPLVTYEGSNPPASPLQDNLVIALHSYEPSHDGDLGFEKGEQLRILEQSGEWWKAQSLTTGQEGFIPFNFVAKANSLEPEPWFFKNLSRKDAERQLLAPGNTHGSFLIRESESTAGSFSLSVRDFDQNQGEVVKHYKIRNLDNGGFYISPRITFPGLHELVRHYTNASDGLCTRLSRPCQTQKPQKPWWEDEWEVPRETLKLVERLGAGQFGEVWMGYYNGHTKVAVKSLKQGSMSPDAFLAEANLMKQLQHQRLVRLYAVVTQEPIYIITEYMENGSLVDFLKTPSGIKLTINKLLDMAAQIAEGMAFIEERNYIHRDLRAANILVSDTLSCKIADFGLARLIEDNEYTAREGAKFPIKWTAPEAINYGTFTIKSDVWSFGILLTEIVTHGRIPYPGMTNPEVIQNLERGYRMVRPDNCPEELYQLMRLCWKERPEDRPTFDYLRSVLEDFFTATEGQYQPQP
# [19] = target: T1, Mitogen-activated protein kinase kinase kinase kinase 1; test: Inhibition of HPK1 (unknown origin) by ELISA
# [20] = target: T3, Receptor-type tyrosine-protein kinase FLT3 (Homo sapiens, UniProt P36888); test: Inhibition of FLT3 (unknown origin) by FRET assay
# T3 sequence (P36888 whole entry): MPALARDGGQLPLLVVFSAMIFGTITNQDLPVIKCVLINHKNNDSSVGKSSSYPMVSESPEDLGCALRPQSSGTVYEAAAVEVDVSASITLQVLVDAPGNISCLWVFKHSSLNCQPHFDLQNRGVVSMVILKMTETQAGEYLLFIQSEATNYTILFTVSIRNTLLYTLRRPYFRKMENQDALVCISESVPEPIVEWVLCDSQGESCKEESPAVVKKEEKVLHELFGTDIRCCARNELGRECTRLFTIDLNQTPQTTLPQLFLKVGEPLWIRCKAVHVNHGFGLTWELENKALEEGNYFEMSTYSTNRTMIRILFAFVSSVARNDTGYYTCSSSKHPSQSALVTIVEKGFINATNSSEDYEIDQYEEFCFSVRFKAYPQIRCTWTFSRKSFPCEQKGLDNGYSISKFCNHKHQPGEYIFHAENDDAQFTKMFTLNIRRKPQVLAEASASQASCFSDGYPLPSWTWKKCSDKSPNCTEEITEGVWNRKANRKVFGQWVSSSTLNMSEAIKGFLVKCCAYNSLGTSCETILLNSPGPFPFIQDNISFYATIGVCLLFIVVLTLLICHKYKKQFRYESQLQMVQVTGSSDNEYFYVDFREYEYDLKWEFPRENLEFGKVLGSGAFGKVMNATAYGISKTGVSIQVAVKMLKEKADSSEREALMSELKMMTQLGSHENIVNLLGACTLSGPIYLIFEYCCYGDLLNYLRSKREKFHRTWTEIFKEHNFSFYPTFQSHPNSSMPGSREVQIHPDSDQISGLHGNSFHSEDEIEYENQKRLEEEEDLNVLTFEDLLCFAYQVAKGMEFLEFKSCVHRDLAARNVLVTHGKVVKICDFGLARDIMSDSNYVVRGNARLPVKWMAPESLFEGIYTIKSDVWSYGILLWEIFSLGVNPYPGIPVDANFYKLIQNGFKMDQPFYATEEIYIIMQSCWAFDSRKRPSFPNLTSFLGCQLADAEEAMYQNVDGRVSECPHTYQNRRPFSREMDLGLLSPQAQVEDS
# [21] = target: T1, Mitogen-activated protein kinase kinase kinase kinase 1; test: Inhibition of HPK1 (unknown origin) assessed as inhibition of SLP76 phosphorylation by HTRF assay
# [22] = target: T2, Protein cereblon/Mitogen-activated protein kinase kinase kinase kinase 1 (Homo sapiens); test: PROTAC activity at CRBN/HPK1 (unknown origin) assessed as maximum degradation of HPK1 by cell based assay relative to control
# [23] = target: T2, Protein cereblon/Mitogen-activated protein kinase kinase kinase kinase 1 (Homo sapiens); test: PROTAC activity at CRBN/HPK1 (unknown origin) assessed as maximum inhibition of SLP76 phosphorylation by cell based assay relative to control
# [24] = target: T1, Mitogen-activated protein kinase kinase kinase kinase 1; test: Inhibition of full-length HPK1 (unknown origin) assessed as inhibition constant in presence of ATP by HTRF assay
structure (smiles),measurement,setting,value
COc1ccc(-c2c[nH]c3ncnc(Oc4c(F)cc(NC5=NCC(C)(CO)CO5)cc4F)c23)c(F)c1 (configuration not stated),IC50,[1],≤ 50 nM
CN1CCN(c2ccc3nc(-c4c(N)c5ccsc5[nH]c4=O)[nH]c3c2)CC1,inhibition,[2],> 75%
CN(C)C(=O)c1ccc(-c2c[nH]c3ncc(-c4ccc5c(c4)CNCC5)cc23)cc1,IC50,[3],107 nM
COCCN(C)C(=O)c1ccc(-c2c[nH]c3ncc(-c4ccc(N5CCN(C)CC5)cc4)nc23)cc1,IC50,[3],8.2 nM
Cc1c(CC#N)ccnc1-c1cc(N)cc(-c2cnc3c(c2Cl)[C@]2(CC[C@](C)(C#N)C2)CN3)c1,Ki,[4],0.9 nM
COc1ccc(-c2c[nH]c3ncc(C#N)c(Oc4c(F)cc(NC5=NCC(C)(CO)CO5)cc4F)c23)c(F)c1 (configuration not stated),IC50,[1],≤ 50 nM
COc1cc2c(cc1Nc1ncc(Cl)c(N3CC(CO)c4ccccc43)n1)CN(C)CC2 (configuration not stated),IC50,[5],< 100 nM
COc1cc2c(cc1Nc1ncc(Br)c(Nc3ccccc3P(C)(C)=O)n1)CN(C)CC2,IC50,[6],≤ 5 nM
Cn1cc(Nc2ncc(C3=CCC[C@@H](NC(=O)c4ccccc4)C3)nc2C(N)=O)cn1,EC50,[7],149 nM
same,IC50,[8],4 nM
same,Kd,[9],2.2 nM
CNC(=O)c1ccccc1Nc1nc(Nc2cc3c(cc2OC)CCN(C)C3)ncc1Cl,IC50,[6],5 nM
COc1cccc(F)c1-c1cc2c(NCc3ccc(N4CCN(C)CC4)cc3)n[nH]c2cn1,Ki,[10],500 nM
COc1cc2c(cc1Nc1ncc(Cl)c(Nc3ccccc3P(C)(C)=O)n1)CN(C)CC2,IC50,[11],100 nM
same,IC50,[6],< 5 nM
same,IC50,[12],0.334 nM
COc1cc2c(cc1Nc1ncc(Cl)c(Nc3ccccc3S(=O)(=O)C(C)C)n1)CN(C)CC2,IC50,[6],≤ 5 nM
CCN(CC)CCNC(=O)c1c[nH]c(/C=C2\C(=O)Nc3ccc(-c4c(F)cccc4OC)cc32)c1,IC50,[13],< 50 nM
Cc1cc(CNCCO)cc(F)c1-c1cc2c(-c3cnn(C)c3)n[nH]c2cn1,Ki,[10],≤ 100 nM
C[C@H]1CC(=O)c2ccc(Nc3cc4c([C@](C)(N)C5CC5)cnc(OC5CC5)c4cn3)cc2C12CC2,IC50,[6],0.05 nM
same,EC50,[14],9.4 nM
CCc1c(Cl)[nH]c2nc(C(=O)N(C)C)c(N)cc12,Ki,[4],0.9 nM
Cc1cc(-c2cnc3[nH]cc(-c4ccc(C(=O)N(C)C[C@H](C)O)cc4)c3n2)cc2c1CCN(CCN1CCOCC1)C2,IC50,[3],11 nM
same,IC50,[15],1420 nM
Cc1cc(-c2cnc(N)c(OCc3ccnc(C#Cc4cccc(F)c4)c3)n2)cc2c1CCN(C)C2,IC50,[8],2.8 nM
Cc1ccncc1-c1cc2cc(NC(=O)C=C3CC(C#N)C3)ncc2c(N)n1 (configuration not stated),IC50,[5],< 0.01 nM
COc1cccc(F)c1-c1ncc2[nH]nc(-c3ccc(N4CCN(C)CC4)cc3)c2n1,Ki,[10],≤ 100 nM
COc1cc2c(cc1Nc1ncc(Cl)c(Nc3ccccc3P(C)(C)=O)n1)CN(C)C2,IC50,[6],10 nM
COc1cccc(F)c1-c1cc2c(C(=O)Nc3ccc(N4CCN(C)CC4)cc3)n[nH]c2cn1,Ki,[10],≤ 100 nM
CC(C)(O)C#Cc1cccc(COc2cc(-c3cnc(C4CCN(C(=O)CCOCCOCCOCCOCCOc5cccc6c5C(=O)N(C5CCC(=O)NC5=O)C6=O)CC4)s3)cnc2N)c1 (configuration not stated),Activity,[16],72%
same,Activity,[17],68%
C[C@H]1COC(=O)N1c1cc(N)c2nnc(NC(=O)[C@@H]3C[C@H]3c3cnn(C)c3)cc2c1,IC50,[5],1.9 nM
CCc1c(C)[nH]c2nc(C(=O)N(C)C)c(N)cc12,Ki,[4],15 nM
COc1cc2c(cc1Nc1ncc(Cl)c(Nc3ccccc3P(C)(C)=O)n1)CN(C)CCC2,IC50,[6],100 nM
COc1cccc(F)c1-n1cc2c(-c3ccc(N4CCN(C)CC4)cc3)n[nH]c2cc1=O,Ki,[10],≤ 100 nM
COc1cccc(F)c1-c1ccc2[nH]nc(-c3ccc(N4CCN(C)CC4)cc3)c2n1,Ki,[10],≤ 100 nM
CN(C)C(=O)c1ccc(-c2c[nH]c3ncc(-c4ccc5c(c4)CN([C@H]4CC[C@](C)(O)CC4)CC5)cc23)cc1,IC50,[3],7.3 nM
C/C(Nc1ccc(N2CCOCC2)cn1)=C1/C(=O)Nc2cnc(-c3cnccc3C)cc21,IC50,[13],< 50 nM
CN1CCN(c2ccc3nc(-c4c(N)c5sccc5[nH]c4=O)[nH]c3c2)CC1,IC50,[18],50 nM
same,IC50,[19],50 nM
same,inhibition,[2],> 75%
same,IC50,[20],50 nM
Cc1c(CC#N)ccnc1-c1cccc(-c2cnc3c(c2Cl)C2(CC[C@@](C)(C(N)=O)C2)CN3)c1F (some centres not stated),Ki,[4],0.39 nM
CC(C)n1cnnc1-c1cccc(N2Cc3c(cc(N4CCC[C@H]4C)nc3CN)C2=O)n1,IC50,[21],22 nM
CC(C)(O)C#Cc1cccc(COc2cc(-c3cnc(C4CCN(C(=O)CCCCCCCCCOc5cccc6c5C(=O)N(C5CCC(=O)NC5=O)C6=O)CC4)s3)cnc2N)c1 (configuration not stated),Activity,[16],15%
same,Emax,[22],62%
same,Activity,[17],75%
same,Emax,[23],81%
CNCc1nc(C2(C)CC2)cc2c1CN(c1cccc(N3C(=O)OC[C@@H]3C)n1)C2=O,IC50,[21],730 nM
Cc1c(N)cncc1-c1cc2cc(Nc3cc4n(n3)CC(=O)N(C(C)C)CC4)ncc2cc1F,Ki,[24],0.05 nM
Cc1cc(-c2cnc3[nH]cc(-c4ccc(C(O)C5CCN(C)C5)cc4)c3c2)ccc1N1CCN(C)CC1 (configuration not stated),IC50,[3],4.5 nM
Cc1cc(-c2cnc3[nH]cc(-c4ccc(C(=O)N5CC(N(C)C)C5)cc4)c3c2)cc(C)c1N1CCN(C2CCN(C)CC2)CC1,IC50,[3],4.8 nM
CN1CCN(c2ccc3[nH]c(-c4c(N)c5ccsc5[nH]c4=O)nc3c2)CC1,IC50,[18],50 nM
same,IC50,[19],≤ 50 nM
same,IC50,[20],≤ 500 nM
COc1cc2c(cc1Nc1ncc(C(F)(F)F)c(Nc3ccccc3P(C)(C)=O)n1)CN(C)CC2,IC50,[6],5 nM
Cc1cc2cc(N)c(C(=O)N(C)C)nc2[nH]1,Ki,[4],1300 nM
